We go through 74 molecules from paper PMC12040169 (PLOS Biology, 2025).

This data set is described as follows: in vitro. Conditions: human, hela cells, % viability.
Broadly, the viability is a read-out of living cells in per cent, often relative to untreated cells. As to `O=C(c1cc(-c2ccncc2)nc2ccc(Cl)cc12)N1CCN(CCc2ccccc2)CC1` [CBK267719], the viability at 28.5 h, 10 µM is 86.6%.

For `O=C(Nc1ccc(S(=O)(=O)Nc2nccs2)cc1)c1cc(-c2cccnc2)nc2ccc(Cl)cc12` [CBK267721], the viability at 28.5 h, 10 µM turned out to be 105%.

As for `Cc1cc(C)c2nc(-c3ccccn3)cc(C(=O)Nc3cccc(Cn4cccn4)c3)c2c1` [CBK267723], the viability at 28.5 h, 10 µM came out at 90.4%.

`Cc1cc(C)c2nc(-c3cccnc3)cc(C(=O)N3CCN(S(=O)(=O)c4ccc(F)cc4)CC3)c2c1` [CBK267726]: the viability at 28.5 h, 10 µM turned out to be 95%.

Consider `CCNS(=O)(=O)c1ccc(NC(=O)c2cc(-c3ccccn3)nc3c(C)c(C)ccc23)cc1` [CBK267733], for which the viability at 28.5 h, 10 µM amounted to 97.3%.

In the case of `Cc1ccc(-c2cc(C(=O)NCCCN3CCOCC3)c3cc(Cl)ccc3n2)o1` [CBK267737], the viability at 28.5 h, 10 µM was 108%.

`COc1ccc(S(=O)(=O)N2CCN(C(=O)c3cc(-c4ccncc4)nc4c(C)c(Cl)ccc34)CC2)cc1` [CBK267739]: the viability at 28.5 h, 10 µM was found to be 92.6%.

Take `Cc1sc(NC(=O)c2cc(-c3ccncc3)nc3ccc(Cl)cc23)c(C#N)c1C` [CBK267742]: the viability at 28.5 h, 10 µM was 87.7%.

As for `Cc1ccc(-c2cc(C(=O)Nc3ccc(S(N)(=O)=O)cc3)c3ccc(Cl)c(C)c3n2)cc1` [CBK267745], the viability at 28.5 h, 10 µM came to 111%.

With `COc1ccc(NC(=O)c2cc(-c3cccnc3)nc3c(C)c(C)ccc23)c(OC)c1` [CBK267746], the viability at 28.5 h, 10 µM was determined as 96.2%.

Consider `Cc1ccc2c(C(=O)Nc3sc4c(c3C(N)=O)CCCCC4)cc(-c3ccccn3)nc2c1C` [CBK267749], for which the viability at 28.5 h, 10 µM was found to be 94%.

Turning to `COC(=O)c1ccsc1NC(=O)c1cc(-c2ccc(C)o2)nc2ccc(Br)cc12` [CBK267752], the viability at 28.5 h, 10 µM amounted to 86.7%.

Take `COc1ccc(-c2nc3ccc(C)cc3c(C(=O)NCCc3ccc(S(N)(=O)=O)cc3)c2C)cc1` [CBK267753]: the viability at 28.5 h, 10 µM was 123%.

Consider `Cc1cc(C(F)(F)F)nn1CCCNC(=O)c1cc(-c2ccccc2)nc2ccccc12` [CBK267755], for which the viability at 28.5 h, 10 µM came out at 85%.

With `COc1ccc([N+](=O)[O-])cc1NC(=O)c1cc(-c2cccnc2)nc2ccc(C)cc12` [CBK267757], the viability at 28.5 h, 10 µM was determined as 86.8%.

On to `O=C(Nc1ccccc1-c1ccccc1)c1cc(-c2ccncc2)nc2ccc(Cl)cc12` [CBK267759], for which the viability at 28.5 h, 10 µM was found to be 95%.

With `COc1cccc(CN2CCN(C(=O)c3cc(-c4ccncc4)nc4ccc(C)cc34)CC2)c1` [CBK267760], the viability at 28.5 h, 10 µM is 86%.

As to `CC1CCc2c(sc(NC(=O)c3cc(-c4cccnc4)nc4ccc(Cl)cc34)c2C(N)=O)C1` (centres unmarked) [CBK267762], the viability at 28.5 h, 10 µM was 104%.

Turning to `CC(C)c1cc(C(=O)N2CCOCC2)c(NC(=O)c2cc(-c3cccnc3)nc3ccc(Br)cc23)s1` [CBK267763], the viability at 28.5 h, 10 µM turned out to be 93.7%.

Regarding `COc1ccc([N+](=O)[O-])cc1NC(=O)c1cc(-c2ccccc2Cl)nc2ccc(C)cc12` [CBK267764], the viability at 28.5 h, 10 µM amounted to 94.1%.

For `CCCc1cc(C(N)=O)c(NC(=O)c2cc(-c3ccc(C)o3)nc3ccccc23)s1` [CBK267766C], the viability at 28.5 h, 10 µM was found to be 90.9%.

Regarding `O=C(NCc1ccccc1)c1cccc(NC(=O)c2cc(-c3ccccn3)nc3ccc(Cl)cc23)c1` [CBK267768], the viability at 28.5 h, 10 µM came out at 94%.

As for `O=C(NCc1ccccc1)c1cccc(NC(=O)c2cc(-c3ccncc3)nc3ccc(Cl)cc23)c1` [CBK267769], the viability at 28.5 h, 10 µM was 117%.

Consider `NS(=O)(=O)c1ccc(CNC(=O)c2cc(-c3ccncc3)nc3ccc(Cl)cc23)cc1` [CBK267770], for which the viability at 28.5 h, 10 µM is 101%.

`CCN(CC)C(=O)c1sc(NC(=O)c2cc(-c3ccncc3)nc3c(C)cccc23)c(C#N)c1C` [CBK267771]: the viability at 28.5 h, 10 µM was 93.6%.

Take `Cc1cc(C)c2nc(-c3ccccn3)cc(C(=O)Nc3ccc(S(=O)(=O)Nc4onc(C)c4C)cc3)c2c1` [CBK267775]: the viability at 28.5 h, 10 µM is 92.9%.

Turning to `COc1ccc(OC)c(S(=O)(=O)N2CCN(C(=O)c3cc(-c4ccncc4)nc4c(C)cc(C)cc34)CC2)c1` [CBK267778], the viability at 28.5 h, 10 µM turned out to be 103%.

With `COc1ccccc1-c1cc(C(=O)NCCCN2CCOCC2)c2ccccc2n1` [CBK267780], the viability at 28.5 h, 10 µM was found to be 83.8%.

Regarding `CC(=O)c1ccc(N2CCN(C(=O)c3cc(-c4ccncc4)nc4ccc(Cl)cc34)CC2)cc1` [CBK267781], the viability at 28.5 h, 10 µM is 91.8%.

In the case of `Cc1ccc2nc(-c3ccccn3)cc(C(=O)NCc3ccccn3)c2c1` [CBK267782], the viability at 28.5 h, 10 µM is 86.6%.

As for `CC(C)(C)NS(=O)(=O)c1ccc(NC(=O)c2cc(-c3ccccn3)nc3c(Cl)cccc23)cc1` [CBK267783], the viability at 28.5 h, 10 µM worked out at 99.6%.

For the molecule `CC(=O)Nc1cc(C(=O)Nc2ccc(Br)cc2)ccc1C` [CBK267788], the viability at 28.5 h, 10 µM is 84.1%.

For `Cc1ccc(O)c(NC(=O)c2cccc(S(=O)(=O)N3CCCCC3)c2)c1` [CBK267790], the viability at 28.5 h, 10 µM was 83.3%.

Take `Cc1cc(Cl)cc(Br)c1OCCNCCN(C)C` [CBK267791G]: the viability at 28.5 h, 10 µM was 102%.

Turning to `O=[N+]([O-])c1ccc(-c2ccc(/C=C/c3cc(O)c4ccccc4n3)o2)cc1` [CBK267792], the viability at 28.5 h, 10 µM was found to be 92.1%.

Take `CN(C)S(=O)(=O)c1cccc(C(=O)NCCc2ccccc2)c1` [CBK267793]: the viability at 28.5 h, 10 µM is 91.3%.

For `O=[N+]([O-])c1cc2c(cc1C(Nc1ccccn1)c1cc(Cl)c3cccnc3c1O)OCO2` (centres unmarked) [CBK267795], the viability at 28.5 h, 10 µM was 83%.

`O=C(Nc1ccccc1[N+](=O)[O-])C1(c2ccccc2)CCN(S(=O)(=O)c2ccccc2)CC1` [CBK267796]: the viability at 28.5 h, 10 µM came out at 85.9%.

Turning to `O=C(O)c1[nH]c2ccccc2c1C(c1c(F)cccc1Cl)c1c(C(=O)O)[nH]c2ccccc12` [CBK267797], the viability at 28.5 h, 10 µM came to 87.4%.

With `O=C(OCc1ccccc1F)c1cccc(-c2nnc(-c3ccccc3)o2)c1` [CBK267798], the viability at 28.5 h, 10 µM was determined as 84.6%.

`O=C(CSCc1c(Cl)cccc1Cl)NN1C(=O)c2ccccc2C1=O` [CBK267800]: the viability at 28.5 h, 10 µM came out at 101%.

As to `Cc1ccc(SCCCCn2cnc3ccccc32)cc1` [CBK267801G], the viability at 28.5 h, 10 µM was found to be 103%.

As for `O=C(c1c[nH]c2ccccc12)C(O)C(c1ccccc1)N1CCOCC1` (centres unmarked) [CBK267802], the viability at 28.5 h, 10 µM was determined as 95.4%.

`Cc1ccc(SCCCNCCN(C)C)cc1` [CBK267807C]: the viability at 28.5 h, 10 µM was 92.2%.

In the case of `Cc1cc(Br)cc(C)c1OCCNCCN(C)C` [CBK267808G], the viability at 28.5 h, 10 µM turned out to be 106%.

For the molecule `O=C(O)c1ccc(NC(=O)c2ccc(S(=O)(=O)N3CCCCC3)cc2)cc1` [CBK267813], the viability at 28.5 h, 10 µM came to 94.2%.

Consider `O=C(CSCc1c(Cl)cccc1Cl)Nc1ccc(-c2nnc(-c3ccccc3)o2)cc1` [CBK267817], for which the viability at 28.5 h, 10 µM came to 99.7%.

With `CC(=O)Nc1ccc(S(=O)(=O)Nc2ccc(-c3nc4cc(C(=O)c5ccccc5)ccc4[nH]3)cc2)cc1` [CBK267819], the viability at 28.5 h, 10 µM came to 99.2%.

In the case of `O=[N+]([O-])c1ccccc1OCCCn1cnc2ccccc21` [CBK267820G], the viability at 28.5 h, 10 µM stood at 44.2%.

For `Cc1ccc([N+](=O)[O-])c(OCCNCCN(C)C)c1` [CBK267822C], the viability at 28.5 h, 10 µM stood at 89%.

Take `O=C(NCc1ccc2c(c1)OCO2)c1ccc2c(c1)C(=O)N(Cc1cccnc1)C2=O` [CBK267824]: the viability at 28.5 h, 10 µM was determined as 89.3%.

Consider `Cc1cc(S(=O)(=O)NC2CCCCC2)ccc1OCC(=O)O` [CBK267832], for which the viability at 28.5 h, 10 µM worked out at 104%.

With `COc1ccc(S(=O)(=O)N(CC(=O)O)c2ccc(Cl)cc2)cc1OC` [CBK267836], the viability at 28.5 h, 10 µM is 97.5%.

For the molecule `Clc1ccccc1-c1nnn(Cc2ccc(-c3nnn[nH]3)cc2)n1` [CBK267838], the viability at 28.5 h, 10 µM was 89.3%.

Take `c1ccc(CSc2nnc3[nH]c4ccccc4n23)cc1` [CBK267841]: the viability at 28.5 h, 10 µM amounted to 91.9%.

Regarding `CCN1CCN(CCNC(=O)Nc2ccccc2C)CC1` [CBK267842], the viability at 28.5 h, 10 µM was determined as 108%.

`O=C(Nc1ccc(OCc2nc3ccccc3s2)cc1)c1cccc(I)c1` [CBK267843]: the viability at 28.5 h, 10 µM is 119%.

With `COc1ccc(-c2nc(=S)c3c(n2CCCN(C)C)CC(C)(C)OC3)cc1` [CBK267844], the viability at 28.5 h, 10 µM turned out to be 104%.

For the molecule `CCN1CCCC1Cn1c(=S)[nH]c2ccccc2c1=O` (centres unmarked) [CBK267849], the viability at 28.5 h, 10 µM came out at 92.8%.

`O=C(CN1CCN(Cc2ccccc2)CC1)Nc1cccc(Cl)c1` [CBK267850]: the viability at 28.5 h, 10 µM came to 113%.

Take `CS(=O)(=O)Nc1ccc(C(=O)Nc2ccc(S(=O)(=O)Nc3nccs3)cc2)cc1` [CBK267856]: the viability at 28.5 h, 10 µM was 97.3%.

Consider `CC(=O)Nc1ccc(OCC(O)CNC2CCCC2)cc1` (centres unmarked) [CBK267857C], for which the viability at 28.5 h, 10 µM came to 87.6%.

Turning to `COc1ccc(NC(=S)NC(=N)N2CCN(Cc3ccccc3)CC2)cc1` [CBK267858], the viability at 28.5 h, 10 µM was determined as 95.1%.

For the molecule `COc1ccc(C)cc1S(=O)(=O)N(C)CC(=O)O` [CBK267863], the viability at 28.5 h, 10 µM was determined as 106%.

As to `Cc1ccc(CSCCNS(=O)(=O)c2cccc([N+](=O)[O-])c2)cc1` [CBK267864], the viability at 28.5 h, 10 µM came to 108%.

For the molecule `COc1ccc(C(C)(C)C)cc1S(=O)(=O)NC1CC(C)(C)NC(C)(C)C1` [CBK267865], the viability at 28.5 h, 10 µM was 102%.

Take `O=C(CSc1nnc(COc2ccccc2)o1)c1cccc([N+](=O)[O-])c1` [CBK267868]: the viability at 28.5 h, 10 µM came out at 104%.

With `CC(NS(=O)(=O)c1cc(Cl)ccc1Cl)C(=O)Nc1ccccc1` (centres unmarked) [CBK267871], the viability at 28.5 h, 10 µM was found to be 110%.

With `O=C(CSc1nnc(-c2ccccc2O)n1-c1ccccc1)Nc1ccc(N2CCOCC2)cc1` [CBK267874], the viability at 28.5 h, 10 µM is 103%.

Consider `Nc1n[nH]c(SCC(=O)Nc2ccc(Br)cc2Cl)n1` [CBK267875], for which the viability at 28.5 h, 10 µM came to 95.3%.

For the molecule `O=C(Nc1ccc2oc(-c3cccnc3)nc2c1)c1sc2cc(Cl)ccc2c1Cl` [CBK267876], the viability at 28.5 h, 10 µM was 97.4%.

On to `N=C(NC(=S)Nc1ccccc1)N1CCN(Cc2ccccc2)CC1` [CBK267878], for which the viability at 28.5 h, 10 µM came out at 106%.

As for `COc1ccc(C)cc1S(=O)(=O)NCCO` [CBK267881], the viability at 28.5 h, 10 µM came to 98.4%.

As to `COc1ccc(S(=O)(=O)N(C)CC(=O)Nc2cccc(F)c2)cc1Cl` [CBK267882], the viability at 28.5 h, 10 µM was determined as 90%.
